Measurements as given in BindingDB's records for doi:10.1158/1535-7163.MCT-06-0397 (Loma Linda University, 2007).

Target: Serine/threonine-protein kinase pim-1 (Homo sapiens, UniProt P11309)
Test: Solid-Phase ELISA Kinase Assay
Details: pH 7; 30 °C
Protocol: The 96-well flat-bottomed plates were coated with recombinant GST-BAD. After the plates were blocked, the reaction buffer containing test compound and recombinant GST-PIM1 kinase were added to each well. Phosphorylated GST-BAD was detected by an ELISA reaction. The level of phosphorylated GST-BAD present was proportional to the absorbance at 450 nm. Curve fitting and enzyme analyses were done using GraphPad Prism version 4.00 (GraphPad Software, San Diego, CA).

Sequence of Serine/threonine-protein kinase pim-1 (P11309 whole entry): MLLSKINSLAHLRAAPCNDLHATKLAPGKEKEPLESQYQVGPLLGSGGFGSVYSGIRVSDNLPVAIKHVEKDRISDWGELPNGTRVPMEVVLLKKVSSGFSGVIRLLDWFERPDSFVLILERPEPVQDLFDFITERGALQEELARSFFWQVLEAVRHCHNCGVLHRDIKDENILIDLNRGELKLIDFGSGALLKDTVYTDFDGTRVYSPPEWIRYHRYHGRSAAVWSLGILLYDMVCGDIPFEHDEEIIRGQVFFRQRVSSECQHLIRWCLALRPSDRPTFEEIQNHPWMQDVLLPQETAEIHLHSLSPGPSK

| Structure (SMILES) | IC50 |
| --- | --- |
| O=c1c(O)c(-c2cc(O)c(O)c(O)c2)oc2cc(O)cc(O)c12 | 0.78 µM |
| O=c1c(O)c(-c2ccc(O)c(O)c2)oc2c(O)c(O)cc(O)c12 | 0.43 µM |
| O=c1cc(-c2ccc(O)cc2)oc2c(O)c(O)ccc12 | 22 µM |
| O=C1C[C@@H](c2ccccc2)Oc2cc(O)cc(O)c21 | 107 µM |
| O=c1c(O)c(-c2ccc(O)cc2)oc2cc(O)cc(O)c12 | 1.3 µM |
| O=c1c(O)c(-c2ccc(O)cc2O)oc2cc(O)cc(O)c12 [2-(2,4-dihydroxyphenyl)-3,5,7-trihydroxychromen-4-one] | 2.7 µM |
| O=c1cc(-c2ccc(O)c(O)c2)oc2cc(O)cc(O)c12 [2-(3,4-dihydroxyphenyl)-5,7-dihydroxy-4H-chromen-4-one] | 1.6 µM |
| O=c1cc(-c2ccc(O)cc2)oc2cc(O)cc(O)c12 [Naringenin, 18] | 0.94 µM |

Now from value to compound:

| IC50 | Structure (SMILES) |
| --- | --- |
| 8.3 µM | O=c1c(O)c(-c2ccc(O)cc2O)oc2ccc(O)cc12 [2-(2,4-dihydroxyphenyl)-3,6-dihydroxy-4H-chromen-4-one] |
| 0.85 µM | O=c1c(O)c(-c2ccc(O)c(O)c2)oc2cc(O)ccc12 [2-(3,4-dihydroxyphenyl)-3,7-dihydroxy-chromen-4-one] |
| 0.98 µM | O=c1c(O)c(-c2ccc(O)cc2)oc2cc(O)ccc12 [3,7-dihydroxy-2-(4-hydroxyphenyl)-4H-chromen-4-one] |
| 4.6 µM | O=c1c(O)c(-c2ccccc2)oc2cc(O)ccc12 [3,7-dihydroxy-2-phenyl-4H-chromen-4-one] |
| 15 µM | O=c1cc(-c2ccccc2)oc2cc(O)cc(O)c12 [5,7-dihydroxy-2-phenyl-4H-chromen-4-one] |
| 14 µM | O=c1cc(-c2ccccc2)oc2cc(O)ccc12 [7-Hydroxy-flavone, 5a] |
| 7.8 µM | O=c1cc(-c2cc(O)c(O)c(O)c2)oc2cc(O)ccc12 [7-hydroxy-2-(3,4,5-trihydroxyphenyl)-4H-chromen-4-one] |
| 4.52 µM | O=c1cc(-c2cccc(O)c2)oc2cc(O)ccc12 [7-hydroxy-2-(3-hydroxyphenyl)-4H-chromen-4-one] |
| 60.2 µM | O=C1C[C@H](c2ccccc2)Oc2cc(O)cc(O)c21 [(2R)-5,7-dihydroxy-2-phenyl-3,4-dihydro-2H-1-benzopyran-4-one] |
| 12.5 µM | CC(C)=CCc1c(O)cc(O)c2c1O[C@H](c1ccccc1)CC2=O [(2S)-5,7-dihydroxy-8-(3-methylbut-2-en-1-yl)-2-phenyl-3,4-dihydro-2H-1-benzopyran-4-one] |
